The values that follow come from US20250305004A1, “ENHANCING GENE TARGETING EFFICIENCY IN HUMAN CELLS WITH DNA-PK INHIBITOR TREATMENT” (The Board of Trustees of the Leland Stanford Junior …, priority 2022, published 2025).

One series concerns STING1 locus in HSPCs. The series can be described thus: RNP/AAV6 gene targeting at STING1 locus in HSPCs. The class given is cell-based, human. As to conditions: seemingly inactive gRNA (sg5). An excerpt:
(§1) ICE analysis for quantification of gene editing.
(§2) CD34+ HSPC culture and genome editing.

The next series concerns CCR5 locus in PSCs. The series can be described thus: Single cell cloning of PSCs gene targeted at CCR5 locus. Format: cell-based, human. As for the experimental part:
Allelic gene targeting efficiency was unaffected by pretreatment with AZD7648 with or without post treatment when compared to the corresponding controls.
For single cell cloning, gene targeted PSCs were plated at a density of 250 cells per well of a 6-well plate in mTeSR1 medium supplemented with 1× CloneR™2 ([…] technologies, cat: 100-0691) and incubated at 37° C. for 2 days. After 2 days, medium was switched to fresh mTeSR1 medium supplemented with 1× CloneR™2. 2 days later, the cells were switched to and maintained in mTeSR1 medium with daily media changes. At D7-D10, single cell colonies were picked by scraping and were then propagated individually. Gene targeting was assessed in single cell clones by ddPCR as mentioned above and by PCR amplifying the region spanning the knock-in to determine the frequency of mono-, bi-allelic and non-targeted clones.

In the next series the test system is HSPCs. Conditions: 72 h post-gene targeting at CCR5, HBA1 and HBB loci; 0.5 μM. As for the experimental part: Cell viability measurement. MTT assay was used for measuring the gene edited PSC viability. […] After this incubation, MTT was removed, and cells were lysed using 100 μl of lysis buffer (0.1N HCl and 0.5% SDS in isopropanol). After lysis, absorbance was measured at 570 nm with 650 nm as the reference using a SpectraMax M3 plate reader (Molecular devices). The absorbance values were used to calculate the cell viability of gene edited cells as a percentage relative to the mock cells. […] Viable cell counts were represented as percentage relative to the mock or untreated cells as indicated.

Series [1] concerns top off-target sites of HBB, CCR5 and HBA1 gRNAs in HSPCs. Kind of series: NGS off-target analysis in gene targeted HSPCs. The class given is cell-based, human. The source says:
For this, we assessed the previously characterized top off-target site for CCR5 (OT39)^66, HBB (OT1)^72 and HBA1 (OT1)74 gRNAs in the gene targeted HSPCs using next generation sequencing (NGS). […] Blocking of specific off-target breaks is possible, however, if there were biologically important reasons to do so^79, 80. […] Thus, gene editing with AZD treatment increases the frequency alleles with WT sequence and deletion INDELs without the HDR donor template.
NGS analysis for off-target effects. For this, we used commercially available Amplicon-EZ next generation sequencing service from AZENTA, Inc. Previously characterized top off-target site for CCR5 (OT39), HBB (OT1) and HBA1 (OT1) gRNAs were analyzed. PCR was used to amplify a 350-450 bp region encompassing the off-target sites from genomic DNA of the gene targeted HSPCs. Following are the primers used for PCR,
Following PCR, the amplicons were purified using Genejet PCR purification kit (Thermo Fisher Scientific, cat: K0701). The samples were normalized to a concentration of 20 ng/μl and 25 μl volume was submitted for Amplicon-EZ NGS service (AZENTA, Inc). DNA library preparations, sequencing reactions, and bioinformatics analysis were conducted at AZENTA, Inc. DNA Library Preparation was done using NEBNext Ultra DNA Library Prep kit following the manufacturer's recommendations (NEB). […] DNA libraries were validated on the Agilent TapeStation (Agilent Technologies) and were quantified using Qubit 2.0 Fluorometer (Invitrogen) and multiplexed in equal molar mass. […] The raw Illumina reads were checked for adapters and quality via FastQC. The raw Illumina sequence reads were trimmed of their adapters and nucleotides with poor quality using Trimmomatic v.0.36. Paired sequence reads were then merged to form a single sequence if the forward and reverse reads were able to overlap. The merged reads were aligned to the reference sequence and variant detection was performed using AZENTA proprietary Amplicon-EZ program. INDEL frequency at the target site was quantified and plotted as the frequency of reads with insertions and deletions.

For series [2], the system named is TRAC gene locus in T cells. Conditions: 0.5 μM; AAV6 MOI 1250 and 2500. An excerpt:
(FIG. 34d). Next, we tested the effect of compound treatment when titrating down the AAV6 donor amounts for gene targeting at the CCR5 locus. […] For this, we assessed the CD19-CAR knock-in at the TRAC gene locus in T cells using a previously reported gene editing strategy^87 (FIG. 14c).

The subject of a further series is HBB locus in HSPCs. Kind of series: Editing of SCD mutation at HBB locus in HSPCs (AAV6 or ssODN donor). The class given is cell-based, human.
Description: as §1, §2

The subject of a further series is STING1 locus in PSCs. The series can be described thus: RNP/AAV6 gene targeting at STING1 locus (V155M) in PSCs. The class given is cell-based, human. As for the experimental part: In comparison, the untreated cells had around 30% INDELs (FIG. 4D-E).
For this, we tested gene targeting at the STING1 locus to introduce a point mutation (V155M) associated with an autoinflammatory disease called STING-associated vasculopathy with onset in infancy (SAVI)^86 (FIG. 12a). […] To test the feasibility of building a primary cell SAVI model, we next performed the STING1 gene targeting in human CD34+ HSPCs.
PSC culture and genome editing. Gene editing experiments were performed with three PSC lines: H9 embryonic stem cells (ESC) (WiCell) and the previously described 1205-4 and 1208-2 iPS cell lines^106. PSCs were maintained in feeder free conditions on Matrigel (corning, cat: 354277) coated plates in mTeSR1 medium ([…] technologies, cat: 85850). For gene editing, 24 h prior to nucleofection PSCs were pretreated with 10 μM of Y27632 (Cayman Chemical, cat: 10005583). […] PSCs were dissociated into single cells using Accutase (Innovative Cell Technologies, cat: AT104). […] Resuspended cells were added to one well of a 16-well Nucleocuvette Strip (Lonza) and nucleofection was performed in the 4D nucleofector (Lonza) using the program, CA137. […] Gene targeting efficiency was analyzed at 4-6 days post-editing.
as §1

“Also recorded” adds a separate entry of the source.

For the molecule `Cc1cc2ncnn2cc1Nc1ncc2c(n1)n(C1CCOCC1)c(=O)n2C` [AZD7648, 7-methyl-2-((7-methyl-[1,2,4]triazolo[l,5-a]pyridin-6-yl)amino)-9-(tetrahydro-2H-pyran-4-yl)-7,9-dihydro-8H-purin-8-one], the “INDELs after gene targeting” value in the series on STING1 locus in HSPCs is “no INDELs”; in the series with HBB locus in HSPCs (AAV6 donor, 0.5 μM) it was “almost no INDELs; also recorded: nearly INDEL-free levels”; in the series with STING1 locus in PSCs (active gRNA (sg3)), “without INDELs; also recorded: no INDELs”; in the series on STING1 locus in PSCs (seemingly inactive gRNA (sg5), 0.5 μM) it was “without indels; also recorded: no INDELs”. Besides, the “clones with bi-allelic knock-in” value in the series on CCR5 locus in PSCs (0.1 μM) was found to be 60%; in the series with CCR5 locus in PSCs (0.5 μM, untreated 30%) it was 90%. Moreover, the “viable cell count vs mock cells” value with HSPCs is on record as “only a small drop in viable cell count”. The “reads with INDELs at off-target site” value in series [1] (OT1 site for HBA1 gRNA, untreated […]) is given as “around 0.5%”; in series [1] (OT1 site for HBB gRNA, 0.5 μM, untreated 1%), “about 3%”; in series [1] (OT39 site for CCR5 gRNA, untreated below detection limit) it was 0.03%. Further, in series [2], the “increase in frequency of CD19-CAR+ T cells vs untreated” value is listed as 1.4 fold. In the series on HBB locus in HSPCs (ssODN donor […], AZD7648 0.5 μM, untreated 49%), this molecule showed a gene targeting frequency of 65%.
